Experiments:
[1] = system: transgenic soybean plants with DMO-encoding polynucleotide (Events 1-4); assay: Greenhouse, post-V3 applications of different auxin-like herbicides, visual % injury; type: in vivo; conditions: for tolerance of DMO polynucleotide containing soybean: post-V3 application
Protocol: (§1) This was carried out by applying various concentrations of commercially available formulations of other auxin-like herbicides such as 2,4-D (Helena, Collierville, Tenn.), MCPA (Agriliance, St. Paul, Minn.), triclopyr (GARLON 3A; Dow Elanco, Indianapolis, Ind.), clopyralid (STINGER; Dow Elanco, Indianapolis, Ind.), picloram (TORDON 22K; Dow Elanco, Indianapolis, Ind.), or Banvel or CLARITY (BASF, Raleigh, N.C.) to DMO containing plant tissues or plants.
(§2) Transgenic soybean plants were obtained by Agrobacterium-mediated transformation of soybean explants with a DMO-encoding polynucleotide as described above for the events designated Events 1-4. A non-transgenic line was used as a control.
(§3) Applications were made when plants had reached V-3 stage.
(§4) Data were collected using a palm top computer and analyzed using standard statistical methods. The results shown in Table 10 clearly indicate tolerance of transgenic soybean to other auxin-like herbicides such as 2,4-D and MCPA relative to the non-transgenic line.

[2] = system: non-transgenic soybean plants; assay: as above; type: in vivo
Protocol: as §1, §2, §3, §4

Marestail Resistant (KY) = assay: Dicamba, glyphosate and their combination on marestail; type: in vivo, Conyza canadensis; conditions: glyphosate formulation 200 g/ha
MARESTAIL (CA) Resistant = assay: Control of marestail by dicamba or glyphosate, treated at rosette leaf stage; type: in vivo, Conyza canadensis; conditions: glyphosate formulation 2100 g/ha
Text: (§5) Marestail is one of the major weeds in a crop field. Marestail is effectively controlled by glyphosate, but the development of methods for controlling this common weed with other herbicides is important to minimize opportunities for herbicide tolerance to develop.

MARESTAIL (KY) Resistant = assay: as above; type: in vivo, Conyza canadensis; conditions: glyphosate formulation 2100 g/ha
Text: as §5

| Structure (SMILES) | % injury at 21 DAT ([1]; Event 1, 280 g ae/ha post-V3) | % injury at 21 DAT ([1]; Event 1, 561 g ae/ha post-V3) | % injury at 21 DAT ([1]; Event 1, 1120 g ae/ha post-V3) | % injury at 21 DAT ([1]; Event 2, 280 g ae/ha post-V3) | % injury at 21 DAT ([1]; Event 2, 561 g ae/ha post-V3) | % injury at 21 DAT ([1]; Event 2, 1120 g ae/ha post-V3) | % injury at 21 DAT ([1]; Event 3, 280 g ae/ha post-V3) | % injury at 21 DAT ([1]; Event 3, 561 g ae/ha post-V3) | % injury at 21 DAT ([1]; Event 3, 1120 g ae/ha post-V3) | % injury at 21 DAT ([1]; Event 4, 280 g ae/ha post-V3) | % injury at 21 DAT ([1]; Event 4, 561 g ae/ha post-V3) | % injury at 21 DAT ([1]; Event 4, 1120 g ae/ha post-V3) | tolerance of DMO polynucleotide containing soybean [1] | % injury at 21 DAT ([2]; 280 g ae/ha post-V3) | % injury at 21 DAT ([2]; 561 g ae/ha post-V3) | % injury at 21 DAT ([2]; 1120 g ae/ha post-V3) | % injury at 14 DAT ([1]; Event 1, 280 g ae/ha post-V3) | % injury at 14 DAT ([1]; Event 1, 561 g ae/ha post-V3) | % injury at 14 DAT ([1]; Event 1, 1120 g ae/ha post-V3) | % injury at 14 DAT ([1]; Event 2, 280 g ae/ha post-V3) | other results |
| --- | --- | --- | --- | --- | --- | --- | --- | --- | --- | --- | --- | --- | --- | --- | --- | --- | --- | --- | --- | --- | --- |
| O=C(O)COc1ccc(Cl)cc1Cl [2,4-D, (2,4-dichlorophenoxy)acetic acid] | 58.3% | 75.0% | 100.0% | 64.2% | 94.7% | 100.0% | 40.0% | 85.0% | 100.0% | 45.8% | 84.2% | 100.0% | tolerant to low levels | 86.8% | 100.0% | 100.0% | – | – | – | – | – |
| O=C(O)c1nc(Cl)ccc1Cl [Clopyralid, 3,6-dichloro-2-pyridinecarboxylic acid] | – | – | – | – | – | – | – | – | – | – | – | – | – | – | – | – | 99.2% | 100.0% | 100.0% | 98.2% | % injury at 14 DAT ([1]; Event 2, 561 g ae/ha post-V3): 99.7%; % injury at 14 DAT ([1]; Event 2, 1120 g ae/ha post-V3): 100.0%; % injury at 14 DAT ([1]; Event 3, 280 g ae/ha post-V3): 99.3%; % injury at 14 DAT ([1]; Event 3, 561 g ae/ha post-V3): 100.0%; % injury at 14 DAT ([1]; Event 3, 1120 g ae/ha post-V3): 100.0%; % injury at 14 DAT ([1]; Event 4, 280 g ae/ha post-V3): 99.7%; % injury at 14 DAT ([1]; Event 4, 561 g ae/ha post-V3): 100.0%; % injury at 14 DAT ([1]; Event 4, 1120 g ae/ha post-V3): 100.0%; % injury at 14 DAT ([2]; 280 g ae/ha post-V3): 99.3%; % injury at 14 DAT ([2]; 561 g ae/ha post-V3): 100.0%; % injury at 14 DAT ([2]; 1120 g ae/ha post-V3): 100.0% |
| Cc1cc(Cl)ccc1OCC(=O)O [MCPA, (4-chloro-2-methylphenoxy)acetic acid] | 72.5% | 99.3% | 100.0% | 55.0% | 95.0% | 99.7% | 55.0% | 95.8% | 100.0% | 88.3% | 98.8% | 100.0% | tolerant to low levels | 93.0% | 98.3% | 100.0% | – | – | – | – | – |
| Nc1c(Cl)c(Cl)nc(C(=O)O)c1Cl [Picloram, 4-amino-3,5,6-trichloro-2-pyridinecarboxylic acid] | – | – | – | – | – | – | – | – | – | – | – | – | – | – | – | – | 99.7% | 100.0% | 100.0% | 99.3% | % injury at 14 DAT ([1]; Event 2, 561 g ae/ha post-V3): 100.0%; % injury at 14 DAT ([1]; Event 2, 1120 g ae/ha post-V3): 100.0%; % injury at 14 DAT ([1]; Event 3, 280 g ae/ha post-V3): 99.3%; % injury at 14 DAT ([1]; Event 3, 561 g ae/ha post-V3): 99.7%; % injury at 14 DAT ([1]; Event 3, 1120 g ae/ha post-V3): 100.0%; % injury at 14 DAT ([1]; Event 4, 280 g ae/ha post-V3): 99.3%; % injury at 14 DAT ([1]; Event 4, 561 g ae/ha post-V3): 100.0%; % injury at 14 DAT ([1]; Event 4, 1120 g ae/ha post-V3): 100.0%; % injury at 14 DAT ([2]; 280 g ae/ha post-V3): 99.3%; % injury at 14 DAT ([2]; 561 g ae/ha post-V3): 100.0%; % injury at 14 DAT ([2]; 1120 g ae/ha post-V3): 100.0% |
| O=C(O)CNCP(=O)(O)O [glyphosate, N-phosphonomethylglycine] | – | – | – | – | – | – | – | – | – | – | – | – | – | – | – | – | – | – | – | – | % Injury (18 DAT) (Marestail Resistant (KY)): 6%; % Injury (21 DAT) (MARESTAIL (CA) Resistant): about 77%; % Injury (21 DAT) (MARESTAIL (KY) Resistant): about 91% |
